We go through three compounds from publication PMC3288262 (Bioorganic & medicinal chemistry letters, 2012).

Assay [1] addresses human δ opioid receptor (Homo sapiens, UniProt P41143). The class given is biochemical. The note with it: mean of 3–6 determinations ± SEM; for [35S]GTPγS binding ED50: HEK293 cells, human δ opioid receptor. In general terms: Binding of GTPγS marks nucleotide exchange on a G protein.
The test system of assay [2] is μ opioid receptor (guinea pig ileum). As to the kind of experiment: guinea pig ileum. Conditions: read-out: GPI IC50; agonist potency; P.A. = partial agonist.
For assay [3] the test system is unchanged. Conditions: partial agonist, IC40 given in IC50 column; ref [10]; cited from earlier work.
The target of assay [4] is δ opioid receptors (Rattus norvegicus, UniProt P33533). Conditions: ref [10], cited from earlier work.
For assay [5], the target named is δ opioid receptor (mouse vas deferens, δ receptor-representative) (Mus musculus, UniProt P32300). The note with it: read-out: MVD IC50; agonist potency; ref [10]; cited from earlier work.
Assay [6] concerns the target μ opioid receptors (Rattus norvegicus, UniProt P33535). Conditions: read-out: Ki^μ; [3H]DAMGO displacement, rat brain membranes; ref [10]; cited from earlier work.

Several values for one entry are separate records, joined by “and”; a condition that tells them apart may be missing. Identical values can stand only once. Marks after values point to notes of the source that are not given here. Starred links: 1 amine or outer side, 2 acyl side, 3 side chain; linkers in the order of their positions; H or OH if unused. Non-standard residues stand in square brackets, D forms with d. Residues, ends and D or L forms follow the SMILES beside them. Bcp = 4'-[N-((4'-phenyl)phenethyl)carboxamido]phenylalanine, O=C(NCCc1ccc(-c2ccccc2)cc1)c1ccc(C[C@H](N[*:1])C(=O)[*:2])cc1; Tic = O=C(O)[C@@H]1Cc2ccccc2CN1 A value given as a limit tells only on which side of the number the result lay.

Chain of human δ opioid receptor (P41143 whole entry): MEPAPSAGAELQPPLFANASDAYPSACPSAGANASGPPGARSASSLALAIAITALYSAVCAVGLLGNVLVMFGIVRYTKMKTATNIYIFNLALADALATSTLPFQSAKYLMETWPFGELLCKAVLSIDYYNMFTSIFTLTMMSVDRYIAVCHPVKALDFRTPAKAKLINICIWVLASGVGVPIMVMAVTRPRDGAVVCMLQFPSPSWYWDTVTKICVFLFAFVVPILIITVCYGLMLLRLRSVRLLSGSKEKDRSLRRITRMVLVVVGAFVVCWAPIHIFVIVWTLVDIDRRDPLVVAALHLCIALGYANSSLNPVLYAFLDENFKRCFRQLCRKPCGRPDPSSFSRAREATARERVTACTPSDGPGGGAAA
Chain of δ opioid receptors (P33533 whole entry): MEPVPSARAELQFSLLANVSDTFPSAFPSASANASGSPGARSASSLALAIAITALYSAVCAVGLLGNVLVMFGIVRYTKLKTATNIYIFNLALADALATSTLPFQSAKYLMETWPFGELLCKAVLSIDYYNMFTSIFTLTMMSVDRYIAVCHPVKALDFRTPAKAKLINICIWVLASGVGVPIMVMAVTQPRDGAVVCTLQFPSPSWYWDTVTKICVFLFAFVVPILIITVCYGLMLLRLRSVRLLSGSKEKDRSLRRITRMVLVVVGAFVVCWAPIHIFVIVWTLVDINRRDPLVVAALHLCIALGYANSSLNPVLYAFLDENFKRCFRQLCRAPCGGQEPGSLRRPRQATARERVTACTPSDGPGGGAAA
Chain of μ opioid receptors (P33535 whole entry): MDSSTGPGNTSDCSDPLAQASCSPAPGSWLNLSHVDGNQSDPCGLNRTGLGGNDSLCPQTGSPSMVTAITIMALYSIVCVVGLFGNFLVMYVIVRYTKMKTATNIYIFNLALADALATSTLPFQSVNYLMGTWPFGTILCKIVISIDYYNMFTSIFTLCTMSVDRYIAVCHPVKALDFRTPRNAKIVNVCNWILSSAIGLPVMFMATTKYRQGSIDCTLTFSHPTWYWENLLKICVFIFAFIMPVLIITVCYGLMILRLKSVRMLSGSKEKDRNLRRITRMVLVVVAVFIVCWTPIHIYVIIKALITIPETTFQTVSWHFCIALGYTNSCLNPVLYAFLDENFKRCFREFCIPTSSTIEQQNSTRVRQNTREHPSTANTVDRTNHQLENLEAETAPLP
Chain of δ opioid receptor (mouse vas deferens, δ receptor-representative) (P32300 whole entry): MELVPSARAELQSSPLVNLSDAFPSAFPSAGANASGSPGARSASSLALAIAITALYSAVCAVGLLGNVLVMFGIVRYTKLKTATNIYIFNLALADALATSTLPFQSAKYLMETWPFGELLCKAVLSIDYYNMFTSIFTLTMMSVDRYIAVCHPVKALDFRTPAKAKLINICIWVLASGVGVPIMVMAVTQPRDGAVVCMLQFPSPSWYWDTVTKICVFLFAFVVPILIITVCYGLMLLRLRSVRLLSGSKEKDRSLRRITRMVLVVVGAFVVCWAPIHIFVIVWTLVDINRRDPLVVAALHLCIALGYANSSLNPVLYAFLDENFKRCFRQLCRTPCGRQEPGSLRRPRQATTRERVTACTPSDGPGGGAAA

The IC50 is the concentration needed to halve the response being measured. Turning to `N[C@@H](Cc1ccc(O)cc1)C(=O)N1Cc2ccccc2C[C@H]1C(=O)N[C@@H](Cc1ccccc1)C(=O)N[C@@H](Cc1ccccc1)C(=O)O` [TIPP, H-Tyr-Tic-Phe-Phe-OH, reference compound] (H-Y[Tic]FF-OH), in assay [1], the “[35S]GTPγS binding ED50” value is reported as “antagonist”. In addition, in assay [2], the IC50 was above 10000 nM.

For the compound H-Bcp-Tic-Phe-Phe-OH [Compound 13], the “[35S]GTPγS binding ED50” value in assay [1] is on record as 0.413 ± 0.015 nM. The “[35S]GTPγS binding efficacy e” value in assay [1] (efficacy relative to DPDPE (e = 1.0)) was 0.678 and 0.678 ± 0.076. Also, the “GPI IC40” value in assay [3] is reported as 223 ± 37 (IC40) ^d nM. The “Ki^μ/Ki^δ” value in assay [4] (δ vs. μ receptor binding selectivity) is reported as 145.

A word on the Ki: it is a measure of affinity in units of concentration, obtained from inhibition or displacement. On to “H-Bcp-Tic-Phe-Phe-OH (H-[Bcp][Tic]FF-OH) [Compound 13]”, for which the IC50 in assay [5] was 3.42 ± 0.36 nM. Besides, the Ki was 0.605 ± 0.058 nM in assay [4] (read-out: Ki^δ, [3H]DSLET displacement, rat brain membranes) and 87.7 ± 8 nM in assay [6].
